The results in this text go back to PubChem BioAssay (NCI).

Structures are written as SMILES.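 Cells were grown in 96-well plates and exposed to each compound for 48 hours at five concentrations; endpoints were interpolated linearly between bracketing concentrations, or set to the highest concentration if not reached. The concentration for 50% growth inhibition is given as GI50. The concentration for full growth arrest is given as TGI.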

Test in all cases: DTP human tumour cell line panel, 48 h
Assay [1] has as its system A498 renal.
Assay [2] has as its system ACHN renal.
Assay [3] deals with HCC-2998 colon.
For assay [4], the system named is M14 melanoma.
For assay [5], the system named is MDA-MB-231 breast.
In assay [6] the test system is MDA-MB-435.
Assay [7] deals with NCI-H460 lung.
For assay [8], the system named is SF-268 CNS.
Assay [9] concerns SN12C renal.
The test system of assay [10] is SNB-19 CNS.

For the compound `COc1cc2c(cc1OCc1ccccc1)N=C[C@@H]1C[C@@H](F)CN1C2=O`, the GI50 is 1.5 µM in assay [1]; 0.242 µM in assay [2]; 0.496 µM in [3]; 0.158 µM in assay [4]; 0.232 µM in [5]; 0.857 µM in [6]. Also, the GI50 in assay [7] was 1.92 µM; in [8] it was 0.184 µM; in assay [9], 0.273 µM; in assay [10], 0.596 µM. The TGI in assay [1] amounted to 3.48 µM; in assay [2] it was 0.669 µM; in assay [3], 3.02 µM; in assay [4], 0.402 µM; in assay [5] it was 0.553 µM; in assay [6] it was 2.39 µM. The TGI in assay [7] came to 7.13 µM; in assay [8], 1 µM; in assay [9] it was 3.4 µM; in assay [10], 18.2 µM.

For `O=C(O)c1ccccc1-c1ccccc1C(=O)Nc1ccc2c(c1)Cc1ccccc1-2`, the TGI in assay [1] is 44 µM; in [2] it was above 100 µM; in [3] it was 33.4 µM; in [4], 41.6 µM; in [5] it was above 100 µM; in assay [6], above 100 µM. Besides, the TGI is 38.1 µM in assay [7], above 100 µM in assay [8], above 100 µM in assay [9] and above 100 µM in assay [10].

`Nc1cccc2c1CN(C1CCC(=O)NC1=O)C2=O` (stereo unspecified): the GI50 in assay [1], in assay [2], in assay [3], in [4], in [5] and in assay [6] was above 100 µM throughout. Also, the GI50 in assay [7], in assay [8], in assay [9] and in assay [10] was above 100 µM throughout. In addition, the TGI in assay [1], in assay [2], in assay [3], in [4], in assay [5] and in assay [6] was above 100 µM each time. Also, the TGI in [7], in assay [8], in assay [9] and in assay [10] was above 100 µM each time.

With `O=C(N/N=C/c1ccncc1)c1ccc(C(F)(F)F)nc1Nc1cccc(C(F)(F)F)c1`, the GI50 is 2.91 µM in assay [1]; 3.46 µM in assay [2]; 2.15 µM in assay [3]; 1.34 µM in assay [4]; 1.81 µM in assay [5]; 3.66 µM in [6]. For the same compound, the GI50 was 2.84 µM in assay [7], 2.55 µM in [8], 2.37 µM in [9] and 2.67 µM in assay [10]. In addition, the TGI in assay [1] came out at 10 µM; in assay [2], 12.1 µM; in [3], 8.94 µM; in [4] it was 4.03 µM; in [5] it was 9.43 µM; in [6] it was 13.7 µM. Moreover, the TGI in assay [7] worked out at 10.4 µM; in [8], 7.36 µM; in [9] it was 11.5 µM; in [10], 11.8 µM.

With `O=Cc1c[nH]c2ccc(-c3csc4ccccc34)cc12`, the GI50 in [1] is 2.86 µM; in assay [2], 5.11 µM; in assay [3], 15.5 µM; in assay [4], 3.19 µM; in assay [5], 6.28 µM; in assay [6], 1.24 µM. Besides, the GI50 in assay [7] is 3.46 µM; in [8] it was 4.42 µM; in assay [10], 5.98 µM. For the same compound, the TGI was 9.44 µM in [1]; above 100 µM in assay [2]; above 100 µM in assay [3]; above 100 µM in assay [4]; above 100 µM in assay [5]; 3.66 µM in assay [6]. The TGI in assay [7] was above 100 µM; in [8], 54.3 µM; in assay [10], above 100 µM.

Turning to `CCOC(=O)c1c(C(F)(F)F)n([O-])c2ccc(Cl)cc2[n+]1=O`, the GI50 is 1.73 µM in [1]; 1.69 µM in [2]; 2.02 µM in [4]; 2.01 µM in assay [5]; 1.68 µM in assay [6]; 2.05 µM in assay [7]. The GI50 is 2.02 µM in assay [8], 2.23 µM in assay [9] and 6.21 µM in assay [10]. Further, the TGI in assay [1] is 3.93 µM; in [2] it was 3.14 µM; in assay [4], 4.48 µM; in [5], 4.45 µM; in assay [6], 3.85 µM; in assay [7], 3.99 µM. For the same compound, the results for the TGI in assay [8], in assay [9] and in [10] were 3.95 µM, 10.3 µM and 19.2 µM, respectively.

Take `Cc1cc(NS(=O)(=O)c2ccc(NC(=O)COc3ccc(-c4cc5ccccc5[nH]4)cc3)cc2)no1`: the GI50 in assay [1] is 1.7 µM; in assay [2] it was 2.44 µM; in assay [3], 2.07 µM; in [4], 1.71 µM; in assay [5] it was 1.66 µM; in assay [6], 1.38 µM. Also, the GI50 is 2.33 µM in assay [8], 2.24 µM in assay [9] and 2.23 µM in assay [10]. Moreover, the TGI in assay [1] came to 6.58 µM; in assay [2] it was 6.9 µM; in assay [3], 4.94 µM; in [4] it was 4.32 µM; in assay [5], 4.37 µM; in [6], 3.13 µM. In addition, the TGI in [8] came out at 7.74 µM; in assay [9], 10.4 µM; in assay [10] it was 8.69 µM.

For `O=S(=O)(CC(O)C(Cl)(Cl)Cl)NNc1ccccc1` (stereo unspecified), the TGI in assay [1], in assay [2], in assay [4], in assay [5], in assay [6] and in assay [7] was above 100 µM throughout. Moreover, the TGI in [8], in assay [9] and in assay [10] was above 100 µM throughout.

`O=C(O)CN(CC(=O)O)c1ccccc1`: the TGI in [1], in assay [2], in assay [4], in assay [5], in assay [6] and in assay [7] was above 100 µM each time. For the same compound, the TGI in [8], in assay [9] and in assay [10] was above 100 µM each time.

Consider `Nc1nc2c(c(=O)[nH]1)N=C(COP(=O)(O)OP(=O)(O)O)CN2`, for which the TGI in [1], in assay [2], in assay [3], in assay [4], in [5] and in [6] was above 100 µM throughout. Besides, the TGI in [8], in assay [9] and in assay [10] was above 100 µM in each case.
